The values below come from a melting point compilation (Tetko et al.).

In turn, `C#CCNC(=O)Nc1ccccc1[N+](=O)[O-]` showed a melting point of 190 to 192 °C.

The compound `NC(=O)c1csc(N)n1` registered a melting point of 196 to 198 °C.

`COC(=O)c1ccncc1O` had a melting point of 149 to 151 °C. To `Cc1nc2ccccc2n1CCN` belongs 235 to 237 °C; to `Nc1cccc2c1CC(O)C2` (configuration not stated), 125 to 127 °C. In turn, `Nn1c(S)nnc1C1CCOCC1` returned a melting point of 177 to 179 °C. `Cc1nc2c(F)cccc2c(Cl)c1C(C)C` gave a melting point of 47 to 49 °C. To `COc1ncc(N)cc1C(N)=O` belongs 144 to 146 °C. To `Nc1cccc(S(=O)(=O)NC2=NCCC2)c1` belongs 166 to 168 °C; to `O=C(O)c1ccc(Cn2nnc3ccccc32)cc1`, 264 to 266 °C; to `CCc1ccc2c(c1)C(=O)C(=O)N2`, 114 to 116 °C. To `NCC(O)COc1cccc(F)c1` (configuration not stated) belongs 84 to 86 °C. For `O=C(NO)c1cccs1`, the melting point is 124 to 126 °C. To `Brc1cnn(-c2ccncc2)c1` belongs 125 to 127 °C; to `Cc1nc(-c2ccco2)ccc1C(=O)O`, 174 to 176 °C. The compound `CC(SCC(=O)Nc1cccc(Br)c1)C(=O)O` (configuration not stated) showed a melting point of 106 to 108 °C. To `NS(=O)(=O)c1ccc2[nH]c(=O)c(=O)[nH]c2c1` belongs 372 to 374 °C; to `O=c1c2ccc(C(F)(F)F)cc2nc2n1CCC2`, 156 to 158 °C.

`O=C(O)Cn1nnc2ccccc2c1=O` came in with a melting point of 145 to 150 °C.

For `O=Cc1cnn(-c2ccc(Br)cc2)c1`, the melting point was 124 to 126 °C.

The compound `COc1cc(-c2cc(C(=O)NN)c3ccccc3n2)cc(OC)c1OC` displayed a melting point of 200 to 202 °C.

As to `Nc1c(C(=O)O)cc([N+](=O)[O-])cc1[N+](=O)[O-]`, the melting point fell in the range of 266 to 268 °C.

Regarding `CCOc1cc(C=CC(=O)O)ccc1OCCOc1ccc(F)cc1`, the melting point is 105 to 107 °C. For `COc1ccc(CN2C(=O)NC(=O)C2=O)cc1`, the melting point fell in the range of 168 to 170 °C. `Nc1cc(Cl)ccc1C(=O)N1CCCCC1` had a melting point of 103 to 105 °C. To `Nc1cnc(Cl)c(C(=O)O)c1` belongs 193 to 195 °C; to `O=C(O)C(Oc1ccc(Cl)cc1)c1ccccc1` (configuration not stated), 161 to 163 °C. In turn, `COC(=O)c1ccc(F)cc1S(=O)(=O)Cl` showed a melting point of 63 to 65 °C. To `O=[N+]([O-])c1cccc(-c2cn[nH]c2)c1` belongs 154 to 156 °C.

With `O=c1[nH]c2c(Br)cccc2c(=O)o1`, the melting point fell in the range of 169 to 171 °C. On to `NC(=O)C1OCCc2ccccc21` (configuration not stated), for which the melting point is 169 to 171 °C.

`O=C1OCC=C1Br` had a melting point of 53 to 55 °C.

On to `Cn1c(S)nnc1COc1ccc(Cl)cc1`, for which the melting point fell in the range of 118 to 120 °C.

Compound `O=C(O)c1ccc(=O)n(CCOc2ccccc2)n1` gave a melting point of 138 to 140 °C. To `Cc1nc(-c2cccnc2)[nH]c(=O)c1CC(=O)O` belongs 263 to 265 °C; to `COc1ccc(Cl)cc1C(F)(F)C(=O)O`, 110 to 112 °C. Take `CN(C)C=CC(=O)C(F)(F)F`: the melting point was in the range of 52 to 54 °C. Take `Nc1ccn(Cc2cccc3cccnc23)n1`: the melting point lay in the range of 120 to 122 °C. To `COc1ccc(OCCCC(=O)O)cc1` belongs 101 to 105 °C; to `Cn1cc(C#N)c(=O)n(C)c1=O`, 154 to 156 °C.

Regarding `O=S(=O)(c1ccc2oc(S)nc2c1)N1CCOCC1`, the melting point is 251 to 253 °C.

For the compound `Cc1nc(-c2ccncc2)[nH]c(=O)c1CC(=O)O`, the melting point was in the range of 252 to 254 °C. To `Fc1ccccc1CNc1ccncc1` belongs 83 to 85 °C; to `Cc1cccc2cc(C(=O)O)oc12`, 216 to 218 °C; to `Cc1cccc2c1C(=O)NCCN2`, 182 to 184 °C. With `COc1cc2c(cc1OC)C(c1cccs1)NCC2` (configuration not stated), the melting point lay within 112 to 115 °C. To `O=C(O)COc1ccccc1-c1ccccc1` belongs 102 to 104 °C.

As for `CC(C)(C)C1CCc2nc(N)sc2C1` (configuration not stated), the melting point fell in the range of 131 to 133 °C. In turn, `Cc1cc(N)nn1-c1ccc(F)cc1` registered a melting point of 70 to 72 °C. To `CC1CSc2ccc(Cl)cc2NC1=O` (configuration not stated) belongs 222 to 224 °C; to `CCC1(C(=O)O)CCN(C(=O)c2ccccc2)CC1`, 154 to 156 °C; to `COc1cc(C(=O)O)ccc1OCC(C)C`, 145 to 147 °C. To `COc1ccc(Cn2nccc2N)c(OC)c1OC` belongs 71 to 75 °C. `O=C(O)C1CC1c1ccc(Br)cc1` (configuration not stated) came in with a melting point of 122 to 124 °C. In turn, `c1ccc2oc(-c3ccncc3)cc2c1` came in with a melting point of 73 to 75 °C. To `CC(C)(C)OC(=O)NNCCS(C)(=O)=O` belongs 105 to 107 °C; to `CCCOc1ccc(Br)cc1C=O`, 47 to 49 °C; to `N#CCC(=O)Nc1ccccc1Cl`, 124 to 126 °C. To `CC(=O)N(c1ccc(F)cc1)c1nc(C=O)cs1` belongs 216 to 218 °C. The compound `Cc1ccc(NC(=O)c2ccccc2)cc1N` showed a melting point of 144 to 146 °C. To `NCC(=O)Nc1cccc(Br)c1` belongs 79 to 81 °C; to `O=C(O)c1csc(-c2cc(Br)cs2)n1`, 229 to 231 °C; to `NC(=O)N1CCCC1C(=O)O` (configuration not stated), 205 to 207 °C.

For `NNC(=O)c1ccc(Cl)cc1F`, the melting point was in the range of 135 to 137 °C.

With `CC1(C)C(=O)NC(=O)N1CC(N)=O`, the melting point fell in the range of 154 to 156 °C. To `CC(C)CCNS(=O)(=O)c1ccc(N)cc1` belongs 119 to 121 °C; to `O=C(O)c1cccc(S(=O)(=O)NCc2cccnc2)c1`, 231 to 233 °C; to `CC(C)=CC(=O)Nc1scc(-c2ccccc2)c1C(=O)O`, 202 to 204 °C. `CC1CN(c2ccc(NC(=O)CCl)cc2)CC(C)O1` (configuration not stated) came in with a melting point of 175 to 177 °C.

Take `Cc1c(F)cc(C(=O)O)cc1S(=O)(=O)Cl`: the melting point lay in the range of 179 to 181 °C. To `O=C1c2ccccc2C(=O)N1CCCCCCO` belongs 57 to 59 °C; to `CCCOc1cccc(C(=O)O)c1`, 73 to 75 °C. Compound `O=C(O)CN1C(=O)CSc2ccccc21` had a melting point of 151 to 153 °C. To `Cn1c(=O)oc2cc(Br)ccc21` belongs 144 to 146 °C; to `COc1cc(C=O)ccc1OCc1c(C)cc(C(C)(C)C)cc1C`, 139 to 141 °C; to `C1CN(CCC23CC4CC(CC(C4)C2)C3)CCN1`, 76 to 78 °C. Take `CC1c2ccccc2OC1C(=O)O` (configuration not stated): the melting point was in the range of 121 to 123 °C. To `O=C1CC(NC(=O)C(F)(F)F)c2ccccc21` (configuration not stated) belongs 149 to 151 °C; to `NNc1ccc(S(=O)(=O)N2CCC(Cc3ccccc3)CC2)cn1`, 185 to 187 °C. To `CS(=O)(=O)Nc1ccc(O)cc1` belongs 158 to 160 °C; to `CC(C)c1ccc2cc(C(=O)O)[nH]c2c1`, 132 to 134 °C; to `CC(N)c1ccc(N2CCCC2=O)cc1` (configuration not stated), 62 to 64 °C. To `COc1cccc(CN2C(=O)NC(=O)C2=O)c1` belongs 139 to 141 °C; to `O=C(Cc1nc2ccccc2[nH]1)NCc1ccccn1`, 176 to 178 °C.

`CCc1sc(N)nc1-c1ccc(OC)cc1`: the melting point lay within 112 to 114 °C. To `COC(=O)c1nc2ccccc2[nH]1` belongs 189 to 191 °C; to `CCc1nnsc1C(=O)O`, 125 to 133 °C; to `Cc1ccccc1CNC(=O)CCl`, 105 to 107 °C. Compound `NC(=O)Nc1ccc(S(=O)(=O)F)cc1` registered a melting point of 177 to 179 °C.

With `COc1cccc(CNC(N)=O)c1`, the melting point was 111 to 113 °C. On to `CN(CC(=O)O)c1ccc(Cl)cn1`, for which the melting point lay in the range of 135 to 137 °C. On to `CCOc1ccc(-c2nc(CO)cs2)cc1`, for which the melting point lay within 107 to 109 °C. To `CSC(=S)NN=C(C)c1ccccc1` belongs 149 to 151 °C; to `C=CCOc1ccc(C(F)(F)F)cc1C(=O)O`, 58 to 60 °C.

In turn, `CCOC(=O)c1ccc(C(C)=O)cc1` gave a melting point of 55 to 57 °C. To `O=C(O)c1cccc(-c2ncn[nH]2)c1` belongs 239 to 241 °C; to `CCN(CC)S(=O)(=O)c1ccc(N)c(N)c1`, 124 to 126 °C. To `Cc1c(N=C=S)c(=O)n(-c2ccccc2)n1C` belongs 145 to 147 °C; to `O=C(O)c1cc(S)ccc1Br`, 146 to 148 °C. To `CCOC(=O)c1sc(C(C)N)nc1C` (configuration not stated) belongs 53 to 55 °C.

`NC(Cc1ccc(O)cc1)c1nc2ccccc2[nH]1` (configuration not stated) registered a melting point of 193 to 195 °C. Compound `O=C(O)C(F)(F)c1ccc(Cl)c(Cl)c1` displayed a melting point of 109 to 111 °C.

`COc1ccccc1C(=O)/C=C1\NC(=O)CS1` yielded a melting point of 173 to 175 °C.

The compound `O=C(O)CCNC(=O)c1cccs1` yielded a melting point of 220 to 222 °C. To `Nc1ccc(C=O)cc1[N+](=O)[O-]` belongs 173 to 175 °C; to `COC(=O)c1sc2nc(C)nc(Cl)c2c1C`, 149 to 151 °C. For the compound `CCN(CC)S(=O)(=O)c1ccc(C)c(C(=O)O)c1`, the melting point was 140 to 142 °C. As for `CCOc1ccccc1C(=O)CBr`, the melting point was 74 to 76 °C. The compound `NS(=O)(=O)c1ccc(OCC(=O)O)c(F)c1` registered a melting point of 177 to 179 °C. `Cc1ccccc1-c1cc(N)n(Cc2ccccc2)n1` came in with a melting point of 139 to 141 °C. To `CC(C)(C)OC(=O)NCCCC(=O)NN` belongs 114 to 116 °C. To `CC1CCC2(CC1)NC(=O)N(N)C2=O` (configuration not stated) belongs 118 to 120 °C; to `Cc1cc(S(=O)(=O)Cl)cc([N+](=O)[O-])c1C`, 127 to 129 °C. To `CC(=NO)c1ccc(S(=O)(=O)N(C)C)cc1` belongs 108 to 110 °C; to `O=C(c1ccc(F)cc1)c1cccnc1`, 92 to 94 °C; to `ClCc1noc(C2(c3ccccc3)CCOCC2)n1`, 74 to 76 °C. In turn, `CC(NC(=O)CCn1cncn1)C(=O)O` (configuration not stated) came in with a melting point of 254 to 256 °C. To `Cc1cc(OC(F)F)c(C(=O)O)s1` belongs 155 to 157 °C; to `COc1ccccc1C(=O)c1ccccn1`, 49 to 51 °C. Compound `Sc1ncccc1Br` gave a melting point of 199 to 201 °C. To `N#CC1CSCCN1` (configuration not stated) belongs 81 to 83 °C; to `CNc1ccc(Br)cc1N`, 49 to 51 °C.
